The nature of the data set: Human HepG2 cell viability assay in 384 well format. The arrangement: dose 125 nL, time 70.5 hour; cytotoxicity at 70.5 h: concentration not given beside the values. The settings on record: HepG2 cells, read-out: Inhibition. The class given is toxicity, cell-based.
`CCn1nc2c(cc1=O)CN(Cc1nc(-c3ccoc3)no1)CC2`: the cytotoxicity at 70.5 h is 19.1%. With `CN(Cc1nccn1C)C(CO)c1cccc(Br)c1` (stereo not drawn), the cytotoxicity at 70.5 h is -28.6%.

Regarding `CCC(CC)c1cc(CNC(=O)N2CCN(CC)CC2)on1`, the cytotoxicity at 70.5 h was -2.19%. In the case of `Cc1ccoc1C(=O)N1CCCN(Cc2cnn(C)c2)CC1` it was -17.4%; in that of `O=C(CCN1CCCCO1)NCCSc1cnn[nH]1`, -3.27%. For `CCC1(CO)CCCN(c2ncccc2C#N)C1` (stereo not drawn), the cytotoxicity at 70.5 h came to 15.7%.

In the case of `COc1ccc(C2=CCN(C(=O)C3CCCN(C(C)=O)C3)CC2)cc1` (stereo not drawn), the cytotoxicity at 70.5 h is -1.69%. Consider `CN(C)C(=O)c1cccc(CN2CCOC(Cn3cncn3)C2)c1` (stereo not drawn), for which the cytotoxicity at 70.5 h was -4.81%. In the case of `CC1CCN(CCNC(=O)C2CCN(C(=O)C3CC3)CC2)CC1` it was -3.28%; in that of `c1cnc(N2CCCC3(CN(CC4CCOCC4)CCO3)C2)cn1` (stereo not drawn), -3.73%; in that of `CCCN1C[C@H](NC(=O)c2ccccc2F)[C@@H](c2ccc(OC)cc2)C1`, 0.779%. In the case of `Cc1cc(=O)c(C(=O)N(C)Cc2ccc(Cl)c(F)c2)c[nH]1` it was -1.6%; in that of `CC(C)CCCNC(=O)Nc1ccc(C(N)=O)c(Cl)c1`, -4.82%; in that of `N#CCCNC(=O)CSc1ccc(F)cc1F`, -5.86%. With `Cc1ccc(OCC(O)CN(C)CC(=O)NC(C)C)c(C)c1` (stereo not drawn), the cytotoxicity at 70.5 h is 3.84%. As for `NS(=O)(=O)CCN1CCOC(c2ccc(Cl)cc2)C1` (stereo not drawn), the cytotoxicity at 70.5 h was 2.97%. Turning to `Cn1ccc(CN2CCCC2c2ccc3c(c2)OCCCO3)cc1=O` (stereo not drawn), the cytotoxicity at 70.5 h is -12.3%. In the case of `CN(Cc1cncnc1)[C@H]1CN(Cc2ccco2)[C@@H]2CCCO[C@@H]21` it was -9.91%.

Turning to `Cc1ccc(N2C[C@H](O)[C@@H](N3CCN(c4ccccn4)CC3)C2)nn1`, the cytotoxicity at 70.5 h was -11.3%.

Turning to `CN1CCN(c2ncc(-c3cnccn3)c([C@H]3CCCO3)n2)CC1`, the cytotoxicity at 70.5 h was -8.8%. In the case of `CC(c1ccccn1)N(C)Cc1ccc(-n2cncn2)cc1` (stereo not drawn) it was -8.14%; in that of `CC(C)C(NC(=O)c1ccco1)C(=O)N1CCC2(CC1)OCCO2` (stereo not drawn), 17.8%; in that of `N#Cc1cccc(N2CCCC3(C2)CN(c2nncs2)CCO3)c1` (stereo not drawn), 14%.

With `CN(C)C(C(=O)N1CCN(CCn2cccc2)CC1)c1ccc(F)cc1` (stereo not drawn), the cytotoxicity at 70.5 h was -3.42%. In the case of `CC(C)Nc1nc(O)cc(C2CC(=O)N(Cc3ccccn3)C2)n1` (stereo not drawn) it was -5.33%; in that of `COc1cccc(OC)c1C(=O)N1C[C@@H](CN(C)C)[C@@H](CO)C1`, -2.79%. Regarding `NCC1Cc2cc(-c3cncc(C(=O)N4CCOCC4)n3)cc(Cl)c2O1` (stereo not drawn), the cytotoxicity at 70.5 h is -4.26%. For `CCN(CC)C(=O)c1ccn(COc2ccc(F)cc2)n1`, the cytotoxicity at 70.5 h is -10.8%.

Take `O=C1CC(c2ccc(C(F)(F)F)cc2)c2snc(C(=O)O)c2N1` (stereo not drawn): the cytotoxicity at 70.5 h was -15.6%. Regarding `CC(C)c1sc(Cl)nc1C(=O)N1CCN(Cc2ccccc2)CC1`, the cytotoxicity at 70.5 h was 27.3%.

Consider `Clc1cc(Cl)cc(CN2CCC(NCc3cc[nH]n3)CC2)c1`, for which the cytotoxicity at 70.5 h is -4.79%. In the case of `COc1ccc(CC(=O)N2C[C@@H]3COC[C@]3(CN(C)C)C2)cc1` it was -17.9%; in that of `COc1cccc2cc(CNC(=O)N3CCS(=O)(=O)CC3)oc12`, 12.1%. In the case of `CN(Cc1cccc(-n2cccn2)c1)Cc1c[nH]cn1` it was -0.523%; in that of `Cc1nc(CN2CCO[C@@H]3CN(Cc4ccccn4)CC[C@@H]3C2)cs1`, -6.11%. In the case of `Cc1nc2sccn2c1CNc1cc(C(=O)O)ccc1F` it was -7.72%; in that of `O=C(c1cc(-c2cccs2)nc2ccccc12)N1CCN(CCO)CC1`, 0.548%; in that of `NC(=O)C1(c2cnccn2)CCCN1Cc1ccc(F)c(F)c1` (stereo not drawn), 7.58%. With `CCCN1CCN(C(=O)c2cc[nH]n2)[C@H]2CS(=O)(=O)C[C@H]21`, the cytotoxicity at 70.5 h is -11.3%.

Turning to `CC(C)(C)c1nc(CN(CCC2CCCCC2)CC(N)=O)no1`, the cytotoxicity at 70.5 h was found to be 22.6%.

As for `Cc1cccc2c1OCCCC2NCc1nccn1Cc1ccccc1` (stereo not drawn), the cytotoxicity at 70.5 h is -5.77%. For the compound `Cc1cc(C)n(C2CN(c3ncnc4c3CCNCC4)C2)n1`, the cytotoxicity at 70.5 h was -9%. Take `Cc1nnc(-c2ccc(C(=O)Nc3ccnc(N(C)C)n3)cc2)o1`: the cytotoxicity at 70.5 h worked out at 4.63%. In the case of `CC(C)CC(C)NCc1cccnc1N1CCN(c2ccccn2)CC1` (stereo not drawn) it was -12.3%. In the case of `Cn1ccnc1CNC(=O)CCc1cccc(F)c1`, the cytotoxicity at 70.5 h was -9.01%.

Turning to `Cc1cc(C)n(CC(=O)N2CCC(c3nc(C(C)C)no3)CC2)n1`, the cytotoxicity at 70.5 h was -7.07%. Turning to `CC(C)NC(=O)c1nc2c(s1)CCCN2C(C)C`, the cytotoxicity at 70.5 h worked out at 7.18%. In the case of `CN(C)C(=O)N1CCc2onc(C(=O)Nc3cccnc3)c2C1` it was -19.2%; in that of `CN(C)C(CNC(=O)NCc1ccco1)c1cccs1` (stereo not drawn), -6.4%.

As for `O=C(NCc1ccco1)[C@H]1C[C@@H]2CCN(c3nncs3)C[C@H]2O1`, the cytotoxicity at 70.5 h was -9.42%. Turning to `COCCN(Cc1nccs1)C(=O)c1c(C)cc(C)[nH]c1=O`, the cytotoxicity at 70.5 h stood at 12.2%. In the case of `Cc1ccc(S(=O)(=O)N2Cc3c(CN(C)C)nn(C)c3C2)cc1`, the cytotoxicity at 70.5 h came out at 3.97%. For the compound `CCNC(=O)c1cc(OC)c(OC)cc1N(C)S(C)(=O)=O`, the cytotoxicity at 70.5 h was -8.66%. `Cc1ccc(C)c2c(O)cc(CN[C@H]3CCCCNC3=O)nc12`: the cytotoxicity at 70.5 h was -6.91%. As to `CN1CCN(C(=O)c2cn3ccsc3n2)[C@H]2CS(=O)(=O)C[C@H]21`, the cytotoxicity at 70.5 h is -11.3%. `CC(c1nnc(-c2ccccc2)o1)N1CCc2cncnc2C1` (stereo not drawn): the cytotoxicity at 70.5 h was -4.24%. In the case of `CCCC(=O)NCCc1nc(N(C)C)ncc1-c1ccncc1` it was -7.54%. In the case of `C[C@H]1CN(Cc2cccc(F)c2)C[C@@]12CCN(CC(=O)N(C)C)C2=O` it was -5.99%; in that of `CN(CC(=O)c1ccc2[nH]c(=O)[nH]c2c1)Cc1ccc2c(c1)OCO2`, -3.13%; in that of `O=C(CCc1ccc(Cl)cc1)NC1CCN(c2cccc(F)c2)CC1`, 10.5%. Regarding `COC(=O)N1CCN(CCCc2nnnn2-c2ccccc2)CC1`, the cytotoxicity at 70.5 h came out at 8.7%.

In the case of `Cc1nc(C(=O)Nc2cccnc2)c(C(C)C)s1`, the cytotoxicity at 70.5 h is -6.88%.

Regarding `O=c1c2ccccc2ncn1Cc1cc(C2CC2)[nH]n1`, the cytotoxicity at 70.5 h was found to be 13.8%. Regarding `COc1ncc(Cl)c(NCc2ccc(C(=O)N(C)C)cc2)n1`, the cytotoxicity at 70.5 h is 27.7%. Regarding `CCC(CC)C(=O)N(C)CC(=O)Nc1ccc(Br)cn1`, the cytotoxicity at 70.5 h is -1.35%. In the case of `CN(C)CCN1CCCC12CCN(C(=O)c1cnccn1)CC2` it was 6.16%; in that of `CN1CCN(C(=O)c2ccc(=O)n(C)c2)Cc2ccccc21`, -2.39%.

As for `CN(C)[C@@H]1CN(Cc2ccc(O)cc2)C[C@H]1c1cn(C)c2ccccc12`, the cytotoxicity at 70.5 h was 3.53%. For the compound `CC(NC(=O)N1CCC2(C1)OCCO2)c1cccc(Cl)c1` (stereo not drawn), the cytotoxicity at 70.5 h was -4.94%. On to `CCn1c(NCc2cccnc2)nc2c(C)nn(C)c2c1=O`, for which the cytotoxicity at 70.5 h was -4.56%. For `CC(=O)N1CCN(c2nc(C(F)(F)F)nc3sc(C)c(C)c23)CC1`, the cytotoxicity at 70.5 h is -9.75%. For `CC(C)N1CCn2c(nc3cc(C(N)=O)ccc32)C1`, the cytotoxicity at 70.5 h was -16.5%. As to `Cc1noc(C)c1-c1cccc(CC2CCN(C(=O)CCC(=O)O)C2)n1` (stereo not drawn), the cytotoxicity at 70.5 h is -11.7%. In the case of `Cc1cc(N(C)C)nc(C2(C)CCCN2CC(N)=O)n1` (stereo not drawn) it was -2.11%.

On to `Cc1nc(CN(C)C2CCN(Cc3cccc4cccnc34)C2)no1` (stereo not drawn), for which the cytotoxicity at 70.5 h came out at 34%. Turning to `CCNC(=O)C1CN(Cc2c(-c3cc(C)on3)nn(C)c2Cl)CCO1` (stereo not drawn), the cytotoxicity at 70.5 h worked out at 2.76%. Consider `Cc1c(CN2Cc3nccn3CC2c2ccccc2)cnn1C` (stereo not drawn), for which the cytotoxicity at 70.5 h is -4.09%. Turning to `CC(=O)N1CCc2[nH]cnc2C12CCN(C(=O)Cc1cccs1)CC2`, the cytotoxicity at 70.5 h is -9.66%. In the case of `COCCCN1CC2(CCCCN2C(=O)COC)CC1=O` (stereo not drawn), the cytotoxicity at 70.5 h is -8.44%. On to `Cc1ccc(CN2CCc3ncnc(C4CC4)c3CC2)s1`, for which the cytotoxicity at 70.5 h stood at 33.9%.

Take `Cc1noc(C)c1CN1CCO[C@H]2CN(CC3CC3)C[C@H]21`: the cytotoxicity at 70.5 h was -28.9%.

As for `CC(C)C(C(=O)N1CCN(Cc2ccccn2)CC1)n1cncn1` (stereo not drawn), the cytotoxicity at 70.5 h was -10.2%. As to `Cc1cccc(CCC(=O)Nc2ccnn2C2CCS(=O)(=O)C2)c1` (stereo not drawn), the cytotoxicity at 70.5 h was 17%. For the compound `COc1ccc(C(=O)Nc2cnn(CC(=O)NC3CCCC3)c2)c(O)c1`, the cytotoxicity at 70.5 h is -1.19%. In the case of `O=S(=O)(C1CC1)N1CCC2(COCc3cnc(N4CCOCC4)nc32)C1` (stereo not drawn) it was 4.94%; in that of `CCOC(C)c1nc(Cn2cccn2)cs1` (stereo not drawn), -8.39%. For the compound `O=C(Cc1ccccc1)NCCNCc1cccc(O)c1`, the cytotoxicity at 70.5 h was found to be 36.6%. Regarding `O=S(=O)(CCCS(=O)(=O)c1ccc2c(c1)OCCCO2)c1ccccc1`, the cytotoxicity at 70.5 h was -7.8%. `O=S(=O)(Cc1ccc(Br)cc1)NCCO`: the cytotoxicity at 70.5 h is -0.457%. For `NC(=O)c1cc(C2CCCN(CCCOc3ccc(F)cc3)C2)n[nH]1` (stereo not drawn), the cytotoxicity at 70.5 h was 4.69%. On to `CC(C)CN1CCCn2nc(CNC(=O)OCc3ccccc3)cc2C1`, for which the cytotoxicity at 70.5 h was -5.5%.

As to `CN(C)c1cc(CNC(=O)c2cc(Cl)ccn2)ccn1`, the cytotoxicity at 70.5 h is -11.8%.

Regarding `O=S(=O)(NCCN1CC=CC1)c1ccc(Cl)cc1`, the cytotoxicity at 70.5 h is -6.79%. In the case of `CN(CC(N)=O)C(=O)CCCn1ccc2cc(Cl)ccc21` it was 10.8%.

`CCNC(=O)N1CC2=CC(C)(C)COc3ccc(OC)c(c32)C1`: the cytotoxicity at 70.5 h is -6.22%.

For the compound `CCc1ccc2nc(C)cc(C(=O)N3C[C@H]4CCC[C@@]4(CO)C3)c2c1`, the cytotoxicity at 70.5 h is -8.92%.

As to `COc1cc(C2Nc3cc(Cl)ccc3C3=NCCN32)cc(OC)c1OC` (stereo not drawn), the cytotoxicity at 70.5 h turned out to be 13.6%. Turning to `COc1ccc(F)c(F)c1CN1CCC2(CC1)[C@H](O)C[C@@H]2OCCN`, the cytotoxicity at 70.5 h is -7.39%.

These data come from ChEMBL document CHEMBL3507680, “University of Dundee, Gates Library screen for HepG2 cell viability”.
